Results reported in publication PMC5711939, “The rumen microbiome: an underexplored resource for novel antimicrobial discovery” (NPJ Biofilms and Microbiomes, 2017).
In brackets after ≈: the same amount, converted by molar mass. Read-outs that look alike come from different tables or passages of the source. Ends that are not written are not given here.

Assays:
C. coli = system: C. coli
Protocol: (§1) Peptides dissolved in sterile distilled water and comparator antibiotics dissolved in the appropriate solvents[38] were added to sterile U-bottom polypropylene 96-well microplates at desired concentrations.

Ent. faecalis JH2-2 = assay: microbe, parasite or virus in culture
Protocol: as §1

Sal. typhimurium SL1344 = assay: microbe, parasite or virus in culture
Protocol: as §1

[1] = system: List. monocytogenes NCTC 11994; assay: microbe, parasite or virus in culture
Protocol: as §1

C. jejuni = assay: microbe, parasite or virus in culture
Protocol: as §1

E. coli K12 [2] = assay: Time kill kinetics; format: cell-based, Escherichia coli; conditions: at 3 h
Protocol: Assessment of the bactericidal activity of peptides and comparator antibiotics was performed as previously described[39] using exponential-phase cultures of pathogens grown in MHB ([…]). Peptides were added at concentrations 3 times their MIC values. Experiments were performed in quadruplicates, and CFU/ml was calculated at different time points after over overnight incubation.

K. pneumoniae = assay: microbe, parasite or virus in culture
Protocol: as §1

S. aureus = assay: microbe, parasite or virus in culture
Protocol: as §1

P. aeruginosa (CF) = assay: microbe, parasite or virus in culture; conditions: Pseudomonas aeruginosa, cation adjusted MHB, 18–24 h
Protocol: as §1

A. baumanii = assay: microbe, parasite or virus in culture; conditions: Acinetobacter baumannii, strain Q12-0867; Sensitive; cation adjusted MHB, 18–24 h
Protocol: as §1

E. coli K12 [3] = assay: MIC, broth microdilution; format: cell-based, Escherichia coli; conditions: Escherichia coli; strain K12; cation adjusted MHB, 18–24 h; read-out: MIC
Protocol: as §1

Sal. typhimurium = assay: SPOT peptide library screen (resazurin fluorescence); format: cell-based, Salmonella enterica serovar Typhimurium; set-up: unit not given here; conditions: 75% reduction of fluorescence vs untreated controls; active IC75≤0.25, semi-active 0.25<IC75≤0.50, inactive IC75>0.5
From the text: (§2) The peptides in the created peptide library were synthesized based on the SPOT technique and pure peptides (≥95% purity) were synthesized on resin using solid phase Fmoc peptide chemistry.[16] The 135 peptides in the peptide library were screened for antimicrobial activity using both luminescent (Pseudomonas aeruginosa strain H1001)[34] and non-luminescent (epidemic methicillin resistant S. aureus EMRSA-15, Sal. typhimurium and E. coli K12) bacterial strains. Activity against non-luminescent bacteria strains was assessed by fluorescence readings (excitation/emission spectra of 560/590 nm) after the addition of resazurin dye (100 µm final concentration). The results from the screen were analysed using the MATLAB extension Gait-CAD as previously described.[35] Concentration values with a 75% reduction of luminescence or fluorescence (IC75) in relation to untreated controls were computed.

P. aeruginosa H1001 = assay: SPOT peptide library screen (luminescence); format: cell-based, Pseudomonas aeruginosa; set-up: unit not given here; conditions: 75% reduction of luminescence vs untreated controls; active IC75≤0.25, semi-active 0.25<IC75≤0.50, inactive IC75>0.5
From the text: as §2

EMRSA-15 = assay: SPOT peptide library screen (resazurin fluorescence); format: cell-based, Staphylococcus aureus; set-up: unit not given here; conditions: 75% reduction of fluorescence vs untreated controls; active IC75≤0.25, semi-active 0.25<IC75≤0.50, inactive IC75>0.5
From the text: as §2

E. coli K12 [4] = assay: as above; format: cell-based, Escherichia coli; set-up: unit not given here; conditions: 75% reduction of fluorescence vs untreated controls; active IC75≤0.25, semi-active 0.25<IC75≤0.50, inactive IC75>0.5
From the text: as §2

“SIKILKIYFIQGKRHWSF-NH2 (C-terminus assumed) [P11]” was tested, and the MIC (C. coli) was over 128 µg/mL, the MIC (Ent. faecalis JH2-2) was 256 µg/mL and the MIC (Sal. typhimurium SL1344) was 512 µg/mL. The MIC ([1]; NCTC 11994) was 256 µg/mL and the MIC (C. jejuni) was over 128 µg/mL.
QVRWWGRYWRRKWATCR-NH2 [P12] was tested, and the MIC (C. coli) was over 128 µg/mL, the MIC (Ent. faecalis JH2-2) was 256 µg/mL and the MIC (Sal. typhimurium SL1344) was 256 µg/mL. It also gave an MIC ([1]; NCTC 11994) of 128 µg/mL and an MIC (C. jejuni) of over 128 µg/mL.
With `O=C(O)c1cn(C2CC2)c2cc(N3CCNCC3)c(F)cc2c1=O` [Cip, Ciprofloxacin, reference compound] the “Bactericidal activity (reduction in viable count)” value (E. coli K12 [2]) was over 4 log10 CFU/ml, the MIC (Ent. faecalis JH2-2; Enterococcus faecalis, JH22) was 64 µg/mL (≈ 193 µM) and the MIC (Sal. typhimurium SL1344; Salmonella enterica, TYPHIMURIUM) was 0.12 µg/mL (≈ 0.362 µM). It also gave an MIC (K. pneumoniae; Klebsiella pneumoniae, ATCC700603, strain ATCC 700603, SHV-18, cation adjusted MHB, 18–24 h) of 0.25 µg/mL (≈ 0.754 µM), an MIC (K. pneumoniae; Klebsiella pneumoniae, NCTC13442, strain NCTC 13442, OXA-48, cation adjusted MHB, 18–24 h) of 1 µg/mL (≈ 3.02 µM) and an MIC (K. pneumoniae; Klebsiella pneumoniae, strain ID not given, Sensitive, cation adjusted MHB, 18–24 h) of 0.03 µg/mL (≈ 0.0905 µM). It also gave an MIC (K. pneumoniae; Klebsiella pneumoniae, strain Q14-0285, VIM, cation adjusted MHB, 18–24 h) of 32 µg/mL (≈ 96.6 µM), an MIC (S. aureus; Staphylococcus aureus) of over 256 µg/mL and an MIC (S. aureus; Staphylococcus aureus, ATCC29213, strain ATCC 29213, Sensitive, cation adjusted MHB, 18–24 h) of 0.25 µg/mL (≈ 0.754 µM). It also gave an MIC (S. aureus; Staphylococcus aureus, MRSA, strain EMRSA-15, resistances MRSA, Cip, cation adjusted MHB, 5 × 10^5 CFU/ml, 18–24 h) of over 256 µg/mL, an MIC (S. aureus; Staphylococcus aureus, MRSA, strain Q14-0320, cation adjusted MHB, 18–24 h) of 64 µg/mL (≈ 193 µM) and an MIC (S. aureus; Staphylococcus aureus, MRSA, strain Q14-0325, cation adjusted MHB, 18–24 h) of 0.25 µg/mL (≈ 0.754 µM). For the same molecule, the MIC (S. aureus; Staphylococcus aureus, MRSA, strain Q14-0352, cation adjusted MHB, 18–24 h) was 0.5 µg/mL (≈ 1.51 µM), the MIC (S. aureus; Staphylococcus aureus, MRSA, strain Q14-0390, cation adjusted MHB, 18–24 h) was 64 µg/mL (≈ 193 µM) and the MIC (S. aureus; Staphylococcus aureus, MRSA|NCTC12493, strain NCTC 12493, MRSA, cation adjusted MHB, 18–24 h) was 0.25 µg/mL (≈ 0.754 µM). It also gave an MIC ([1]; Listeria monocytogenes, NCTC11994) of 64 µg/mL (≈ 193 µM), an MIC (P. aeruginosa (CF); ATCC27853, strain ATCC 27853, Sensitive) of 0.25 µg/mL (≈ 0.754 µM) and an MIC (P. aeruginosa (CF); strain PA01) of 0.5 µg/mL (≈ 1.51 µM). For the same molecule, the MIC (P. aeruginosa (CF); strain Q12-0535, Sensitive) was 0.06 µg/mL (≈ 0.181 µM), the MIC (P. aeruginosa (CF); strain Q12-0581, IMI, MER) was 2 µg/mL (≈ 6.04 µM) and the MIC (P. aeruginosa (CF); strain Q12-0758, CAZ, IMI, MER) was 2 µg/mL (≈ 6.04 µM). The MIC (P. aeruginosa (CF); strain Q14-0208, CAZ, IMI, MER) was 4 µg/mL (≈ 12.1 µM), the MIC (P. aeruginosa (CF); strain Q14-0890, CAZ, IMI, MER) was 4 µg/mL (≈ 12.1 µM) and the MIC (C. jejuni; Campylobacter jejuni, ATCC33292) was 0.12 µg/mL (≈ 0.362 µM). The MIC (C. jejuni; Campylobacter jejuni, NCTC11161) was 0.5 µg/mL (≈ 1.51 µM), the MIC (A. baumanii) was 0.25 µg/mL (≈ 0.754 µM) and the MIC (E. coli K12 [3]) was 0.06 µg/mL (≈ 0.181 µM).
Work on `C/C(=C\C(=O)OCCCCCCCCC(=O)O)C[C@@H]1OC[C@H](C[C@@H]2O[C@H]2[C@@H](C)[C@H](C)O)[C@@H](O)[C@H]1O` [Mup, Mupirocin, reference compound] yielded an MIC (S. aureus; Staphylococcus aureus, BAA1717|MRSA|USA300, strain USA300 BAA-1717, MRSA, cation adjusted MHB, 18–24 h) of 0.12 µg/mL (≈ 0.24 µM).
For TTAPCKCWIGLRRCFK [P18], the “IC75 values indicating activity classes, Sal. typhimurium” value (Sal. typhimurium) was 1.99, the “IC75 values indicating activity classes, P. aeruginosa H1001” value (P. aeruginosa H1001) was 1.55 and the “IC75 values indicating activity classes, EMRSA-15” value (EMRSA-15) was 3.77. For the same molecule, the “IC75 values indicating activity classes, E. coli” value (E. coli K12 [4]) was 0.36.
Molecule GTAWRWHYRARS-NH2 [P15a] has an MIC (C. coli) of 128 µg/mL, an MIC (K. pneumoniae) of over 128 µg/mL and an MIC (S. aureus) of over 128 µg/mL. The MIC (C. jejuni) was 128 µg/mL.
`C[C@H]1COc2c(N3CCN(C)CC3)c(F)cc3c(=O)c(C(=O)O)cn1c23` [Lev, Levofloxacin, reference compound] was tested, and the MIC (P. aeruginosa (CF); strain AMT0060) was 0.06 µg/mL (≈ 0.166 µM), the MIC (P. aeruginosa (CF); strain C3719) was under 0.03 µg/mL and the MIC (P. aeruginosa (CF); strain LESB58) was 0.06 µg/mL (≈ 0.166 µM).
